{
  "source": "patent US20240343733A1",
  "about": "“COMPOUNDS FOR TARGETING DEGRADATION OF IRAK4 PROTEINS” (BIOGEN MA INC., priority 2021, published 2024)",
  "data": [
    {"target": "T1, IRAK4 (Homo sapiens, UniProt Q9NWZ3)", "T1 construct": "293Tcells expressing HiBiT-tagged IRAK4 were then added into 384-well plates", "T1 sequence (Q9NWZ3 1-460)": "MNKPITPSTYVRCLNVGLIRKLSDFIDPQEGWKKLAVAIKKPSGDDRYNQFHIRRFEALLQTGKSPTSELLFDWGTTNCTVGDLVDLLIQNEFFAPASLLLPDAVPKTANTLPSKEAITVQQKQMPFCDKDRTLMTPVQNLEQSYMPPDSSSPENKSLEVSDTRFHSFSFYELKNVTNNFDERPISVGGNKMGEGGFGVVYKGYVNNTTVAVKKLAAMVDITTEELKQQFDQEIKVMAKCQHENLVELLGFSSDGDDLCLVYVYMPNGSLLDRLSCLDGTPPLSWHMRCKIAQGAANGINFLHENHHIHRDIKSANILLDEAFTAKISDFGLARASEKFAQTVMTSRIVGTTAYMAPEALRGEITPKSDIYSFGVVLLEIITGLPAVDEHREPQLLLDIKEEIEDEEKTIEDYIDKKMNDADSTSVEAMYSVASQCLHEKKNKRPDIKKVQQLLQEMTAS", "test": "IRAK4 Degradation Assay, HiBiT Method", "type": "cell-based", "details": "293T cells expressing HiBiT-tagged IRAK4, 6 hours", "procedure,_shortened": "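293T cells with HiBiT knocked in at the C-terminus of endogenous IRAK4, 10,000 per well, treated 6 h at 37 °C with an 11-point half-log series ([…]), in duplicate. Remaining IRAK4 read by Nano-Glo HiBiT lytic luminescence against DMSO-only and media-only controls.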", "units": {"DC50": "nM"}, "values": [
      {"smiles": "CC(C)Oc1cc2nn([C@H]3CC[C@H](CN4CCOC[C@H]4Cc4ccc(OC5CCC(=O)NC5=O)cc4)CC3)cc2cc1C(=O)Nc1cccn(C2CC2)c1=O", "note": "(stereo partly drawn) [Example 127, N-(1-cyclopropyl-2-oxo-1,2-dihydropyridin-3-yl)-2-((S,4r)-4-(((3S)-3-(4-((2,6-dioxopiperidin-3-yl)oxy)benzyl)morpholino)methyl)cyclohexyl)-6-isopropoxy-2H-indazole-5-carboxamide]", "DC50": "10 to 100"},
      {"smiles": "CC(C)Oc1cc2nn([C@H]3CC[C@H](CN4CCC(c5cc6c(cc5F)c(N5CCC(=O)NC5=O)nn6C)CC4)CC3)cc2cc1C(=O)Nc1cccn([C@H]2C[C@H]2F)c1=O", "note": "[Example 130, 2-((1r,4S)-4-((4-(3-(2,4-dioxotetrahydropyrimidin-1(2H)-yl)-5-fluoro-1-methyl-1H-indazol-6-yl)piperidin-1-yl)methyl)cyclohexyl)-N-(1-((1S,2R)-2-fluorocyclopropyl)-2-oxo-1,2-dihydropyridin-3-yl)-6-isopropoxy-2H-indazole-5-carboxamide]", "DC50": "< 10"},
      {"smiles": "CC(C)Oc1cc2nn([C@H]3CC[C@H](CN4CCOC[C@@H]4Cc4ccc(OC5CCC(=O)NC5=O)cc4)CC3)cc2cc1C(=O)Nc1cnn2cccnc12", "note": "(stereo partly drawn) [Example 131, 2-((1R,4r)-4-(((3R)-3-(4-((2,6-dioxopiperidin-3-yl)oxy)benzyl)morpholino)methyl)cyclohexyl)-6-isopropoxy-N-(pyrazolo[1,5-a]pyrimidin-3-yl)-2H-indazole-5-carboxamide]", "DC50": "10 to 100"},
      {"smiles": "CC(C)Oc1cc2nn([C@H]3CC[C@H](CN4CC[C@@H](c5ccc6c(N7CCC(=O)NC7=O)nn(C)c6c5)[C@H](O)C4)CC3)cc2cc1C(=O)Nc1cccn([C@H]2C[C@H]2F)c1=O", "note": "[Example 132, 2-((1S,4S)-4-(((3S,4S)-4-(3-(2,4-dioxotetrahydropyrimidin-1(2H)-yl)-1-methyl-1H-indazol-6-yl)-3-hydroxypiperidin-1-yl)methyl)cyclohexyl)-N-(1-((1S,2R)-2-fluorocyclopropyl)-2-oxo-1,2-dihydropyridin-3-yl)-6-isopropoxy-2H-indazole-5-carboxamide]", "DC50": "< 10"},
      {"smiles": "CC(C)Oc1cc2nn([C@H]3CC[C@H](CN4CC[C@@H](c5ccc6c(C7CCC(=O)NC7=O)nn(C)c6c5)[C@@H](O)C4)CC3)cc2cc1C(=O)Nc1cccn([C@H]2C[C@H]2F)c1=O", "note": "(stereo partly drawn) [Example 133, 2-((1R,4S)-4-(((3R,4S)-4-(3-(2,6-dioxopiperidin-3-yl)-1-methyl-1H-indazol-6-yl)-3-hydroxypiperidin-1-yl)methyl)cyclohexyl)-N-(1-((1S,2R)-2-fluorocyclopropyl)-2-oxo-1,2-dihydropyridin-3-yl)-6-isopropoxy-2H-indazole-5-carboxamide]", "DC50": "< 10"},
      {"smiles": "CO[C@H]1CN(C[C@H]2CC[C@H](n3cc4cc(C(=O)Nc5cccn([C@H]6C[C@H]6F)c5=O)c(OC(C)C)cc4n3)CC2)CC[C@H]1c1ccc2c(N3CCC(=O)NC3=O)nn(C)c2c1", "note": "[Example 134, 2-((1R,4S)-4-(((3R,4S)-4-(3-(2,4-dioxotetrahydropyrimidin-1(2H)-yl)-1-methyl-1H-indazol-6-yl)-3-methoxypiperidin-1-yl)methyl)cyclohexyl)-N-(1-((1S,2R)-2-fluorocyclopropyl)-2-oxo-1,2-dihydropyridin-3-yl)-6-isopropoxy-2H-indazole-5-carboxamide]", "DC50": "< 10"},
      {"smiles": "CC(C)Oc1cc2nn([C@H]3CC[C@H](CN4CCOC[C@@H]4Cc4ccc(OC5CCC(=O)NC5=O)cc4)CC3)cc2cc1C(=O)Nc1cccn([C@H]2C[C@H]2F)c1=O", "note": "(stereo partly drawn) [Example 135, 2-((1S,4S)-4-(((3S)-3-(4-((2,6-dioxopiperidin-3-yl)oxy)benzyl)morpholino)methyl)cyclohexyl)-N-(1-((1S,2R)-2-fluorocyclopropyl)-2-oxo-1,2-dihydropyridin-3-yl)-6-isopropoxy-2H-indazole-5-carboxamide]", "DC50": "< 10"},
      {"smiles": "CC(C)Oc1cc2nn([C@H]3CC[C@H](CN4CC[C@@H](c5ncc(NC6CCC(=O)NC6=O)cc5F)[C@H](O)C4)CC3)cc2cc1C(=O)Nc1cccn([C@H]2C[C@H]2F)c1=O", "note": "(stereo partly drawn) [Example 136, 2-((1S,4S)-4-(((3S,4S)-4-(5-((2,6-dioxopiperidin-3-yl)amino)-3-fluoropyridin-2-yl)-3-hydroxypiperidin-1-yl)methyl)cyclohexyl)-N-(1-((1S,2R)-2-fluorocyclopropyl)-2-oxo-1,2-dihydropyridin-3-yl)-6-isopropoxy-2H-indazole-5-carboxamide]", "DC50": "< 10"},
      {"smiles": "CC(C)Oc1cc2nn([C@H]3CC[C@H](CN4CCC(c5ccc6c(c5)n(C)c(=O)n6C5CCC(=O)NC5=O)CC4)CC3)cc2cc1C(=O)Nc1cccn([C@H]2C[C@H]2F)c1=O", "note": "(stereo partly drawn) [Example 137, 2-((1r,4S)-4-((4-(1-(2,6-dioxopiperidin-3-yl)-3-methyl-2-oxo-2,3-dihydro-1H-benzo[d]imidazol-5-yl)piperidin-1-yl)methyl)cyclohexyl)-N-(1-((1S,2R)-2-fluorocyclopropyl)-2-oxo-1,2-dihydropyridin-3-yl)-6-isopropoxy-2H-indazole-5-carboxamide]", "DC50": "< 10"},
      {"smiles": "CC(C)Oc1cc2nn([C@H]3CC[C@H](CN[C@@H]4CC[C@H](c5ccc6c(N7CCC(=O)NC7=O)nn(C)c6c5)[C@H](O)C4)CC3)cc2cc1C(=O)Nc1cccn([C@H]2C[C@H]2F)c1=O", "note": "[Example 138, 2-((1R,4S)-4-((((1R,3R,4R)-4-(3-(2,4-dioxotetrahydropyrimidin-1(2H)-yl)-1-methyl-1H-indazol-6-yl)-3-hydroxycyclohexyl)amino)methyl)cyclohexyl)-N-(1-((1S,2R)-2-fluorocyclopropyl)-2-oxo-1,2-dihydropyridin-3-yl)-6-isopropoxy-2H-indazole-5-carboxamide]", "DC50": "< 10"},
      {"smiles": "CC(C)Oc1cc2nn([C@H]3CC[C@H](CN4CCCCC4Cc4ccc(OC5CCC(=O)NC5=O)cc4)CC3)cc2cc1C(=O)Nc1cccn([C@H]2C[C@H]2F)c1=O", "note": "(stereo partly drawn) [Example 139, 2-((1r,4S)-4-((2-(4-((2,6-dioxopiperidin-3-yl)oxy)benzyl)piperidin-1-yl)methyl)cyclohexyl)-N-(1-((1S,2R)-2-fluorocyclopropyl)-2-oxo-1,2-dihydropyridin-3-yl)-6-isopropoxy-2H-indazole-5-carboxamide]", "DC50": "< 10"},
      {"smiles": "CO[C@H]1CN(C[C@H]2CC[C@H](n3cc4cc(C(=O)Nc5cccn(C6CC6)c5=O)c(OC(C)C)cc4n3)CC2)CC[C@H]1c1ccc2c(N3CCC(=O)NC3=O)nn(C)c2c1", "note": "[Example 140, N-(1-cyclopropyl-2-oxo-1,2-dihydropyridin-3-yl)-2-((1R,4r)-4-(((3R,4S)-4-(3-(2,4-dioxotetrahydropyrimidin-1(2H)-yl)-1-methyl-1H-indazol-6-yl)-3-methoxypiperidin-1-yl)methyl)cyclohexyl)-6-isopropoxy-2H-indazole-5-carboxamide]", "DC50": "< 10"},
      {"smiles": "CC(C)Oc1cc2nn([C@H]3CC[C@H](CN4CCC(c5ccc(OC6CCC(=O)NC6=O)cc5)CC4)CC3)cc2cc1C(=O)Nc1cccn([C@H]2C[C@H]2F)c1=O", "note": "(stereo partly drawn) [Example 141, 2-((1r,4S)-4-((4-(4-((2,6-dioxopiperidin-3-yl)oxy)phenyl)piperidin-1-yl)methyl)cyclohexyl)-N-(1-((1S,2R)-2-fluorocyclopropyl)-2-oxo-1,2-dihydropyridin-3-yl)-6-isopropoxy-2H-indazole-5-carboxamide]", "DC50": "< 10"}
    ]}
  ]
}
